The results in this text go back to patent US20250188078A1, “SMALL MOLECULE INHIBITORS OF THE CRL4 UBIQUITIN LIGASE” (Cornell University, priority 2022, published 2025).

Structures are written as SMILES. Where two headings read alike, the source gives them in different places.

Assay [1] concerns CUL1-dependent IκB-α degradation in Hela cells. The assay is described as follows: TNFα-induced CUL1/SCF-dependent IκBα degradation assay (Western blot). Type of assay: cell-based. As to conditions: FIG. 6D. How it is done: FIG. 6D Western blotting of TNFα-induced […] IκBα degradation assay. Hela cells were seeded in 6-well plates. After 24 hours incubation, DMSO or indicated concentration of compounds were added with serum-free medium for 2 hours incubation. TNFα was added and cells were harvested, lysed in buffer containing 150 mM NaCl, 1% SDS, 10 mM Tris-HCl (pH 6.8), 1× complete protease inhibitor cocktail and 10 U Benzo nuclease. Equal amounts of proteins were resolved on 9% SDS-PAGE gel and IκBα levels were detected using anti-IκBα rabbit polyclonal antibody (Proteintech, 10268-1-AP). α-tubulin (Proteintech, #66031-1-Ig) was used as an internal loading control. TNFα-induced IκBα degradation was mediated by CUL1/SCF^βTrCP E3 ligase.
On the technique in general: Immunoblotting shows a protein as a band on a membrane.

Assay [2] concerns CUL4A^low T47D breast cancer cells. Description: Cell killing in CUL4-low T47D cells (CellTiter Glo). Type of assay: cell-based. As to conditions: Homo sapiens, 192 h, 8 days treatment. In general terms: In ATP-based viability assays light output follows the ATP content of the culture.
Assay [3] concerns CUL4A-Vpr-dependent UNG2 degradation in Hela DOX-inducible-Vpr cells. The assay is described as follows: DOX-induced Vpr-mediated CUL4-dependent UNG2 degradation (Western blot). The conditions noted are these: FIG. 6C. In kind it is cell-based. How it is done:
FIG. 6C. Inhibition of DOX-induced Vpr-mediated CUL4-dependent UNG2 degradation by small molecule CUL4 inhibitors. In brief, Hela DOX-inducible-Vpr cells were seeded in 6-well plates. After 24 hours incubation, medium was changed to growth medium with 75 ng/ml doxycycline (DOX) overnight. On the third day, DMSO or indicated concentrations of compounds in serum-free medium containing DOX were added. The cells were lysed in buffer containing 150 mM NaCl, 1% SDS, 10 mM Tris-HCl (pH 6.8), 1× complete protease inhibitor cocktail and 10 U Benzo nuclease. Equal amounts of proteins were resolved on 9% SDS-PAGE gel and UNG2 levels were detected using anti-UNG2 (2C12) antibody (Origene #TA503563). α-tubulin (Proteintech, #66031-1-Ig) was used as an internal control. Normalized UNG2/α-tubulin ratio is higher in the compound treated sample than DMSO treated sample. (−) means that no change happens between compound treated sample with control sample.

The target in a further assay is DDB1-BPB (Homo sapiens (Human), UniProt Q16531). The assay is described as follows: Microscale Thermophoresis (MST) binding to DDB1-BPB. As to conditions: labeled DDB1-BPB, 25° C. How it is done: Kd represents dissociation constant, which measures the affinity of small molecule binding to the scaffold DDB1-BPB by Microscale Thermophoresis (MST) (see Table 1, column 9). MST experiments were performed on a Monolith NT 115 system (Nano Temper Technologies, Munich, Germany) using 100% LED and 60% IR-laser power (https://physiology.case.edu/media/eq manuals/eq_manual_nano-temper_mst_starting_guide.pdf, hereby incorporated by reference in its entirety for all purposes). The labeling of DDB1-BPB ([…]) was performed in labeling buffer with NHS-Red reactive dye (30 μM) (Nanotemper), which reacts efficiently with the primary amines of the proteins to form a stable dye protein conjugates. The labeling reaction was carried out at RT. A 16-point serial dilution (1:1) was prepared for compound at the final concentration ranged from 200 µM to 3 nM in PBS containing 0.05% tween. The samples were filled into Premium capillaries and measurements were conducted at 25° C. An equation implemented by the software MO-S002 MO Affinity Analysis, provided by the manufacturer, was used for fitting normalized fluorescence values at different concentrations of ligands.
(In general: In MST a laser heats a spot of the sample, and binding alters the fluorescence response.)

In assay [4] the target is CUL4A-DDB1-BPB interaction (Homo sapiens (Human), UniProt Q16531). Description: AlphaLISA in vitro binding assay, CUL4A and DDB1-BPB binding. As to conditions: inhibition of CUL4A and DDB1-BPB binding. Put shortly: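 Compound disruption of CUL4A binding to DDB1-BPB measured by AlphaLISA/AlphaScreen bead proximity in 384-well format. IC50 from nonlinear log(inhibitor)-vs-response curve fit.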

Where [5] appears, read: T47D cells, read-out: EC50 CUL4-Low Cells (cell killing).

Sequence of DDB1-BPB (Q16531 403-706): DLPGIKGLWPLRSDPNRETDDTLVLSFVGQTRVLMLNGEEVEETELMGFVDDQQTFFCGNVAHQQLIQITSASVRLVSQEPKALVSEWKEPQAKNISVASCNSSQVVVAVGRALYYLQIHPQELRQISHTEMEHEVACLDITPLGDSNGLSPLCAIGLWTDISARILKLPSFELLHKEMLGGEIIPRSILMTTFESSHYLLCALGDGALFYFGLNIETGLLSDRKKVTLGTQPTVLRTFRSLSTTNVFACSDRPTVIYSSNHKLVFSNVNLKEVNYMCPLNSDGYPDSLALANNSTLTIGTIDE
Sequence of CUL4A-DDB1-BPB interaction (Q16531 403-706): as above

For the compound `CN(c1ccc(-c2nc(C(=O)O)cc3c2[nH]c2ccc(F)cc23)cc1)S(=O)(=O)c1ccccc1` [PA93], the “Inhibition of TNF-α induced CUL1-dependent IκB-α degradation” value in assay [1] is “no inhibition”. For the same compound, the EC50 in assay [2] (setting [5]) was above 100 µM. Also, in assay [3], the “Inhibition of CUL4A-Vpr-dependent UNG2 degradation” value is reported as “robust inhibition”. Besides, the “Kd (MST)” value on DDB1-BPB is reported as “Insoluble”. Besides, in assay [4], the 50% inhibitory concentration (IC50) is 210 ± 100 nM.
In the case of `CN(c1ccc(-c2nc(C(=O)O)cc3c2[nH]c2cccc(F)c23)cc1)S(=O)(=O)c1ccccc1` [PA99, 5-fluoro-1-(4-(N-methylphenylsulfonamido)phenyl)-9H-pyrido[3,4-b]indole-3-carboxylic acid], the “Inhibition of TNF-α induced CUL1-dependent IκB-α degradation” value in assay [1] is “no inhibition”. Besides, the EC50 is 8.27 µM in assay [2] (setting [5]) and 8.27 µM in assay [2] (T47D, Table 3, 0 to 20 μM compound, read-out: EC50 OF cell killing, T47D). The “Inhibition of CUL4A-Vpr-dependent UNG2 degradation” value in assay [3] is listed as “robust inhibition”. This compound also showed a Kd on DDB1-BPB of 2970 nM. In assay [4], the IC50 came out at 380 nM.

The EC50 is the concentration needed to bring the measured effect to its halfway point. Usually IC50 stands for the concentration that inhibits the measured activity by half. A word on the Kd: it is the constant that tells how readily two partners part at equilibrium. Low values mean higher affinity, high ones lower affinity.
